From publication PMC8246850, “Functional selective FPR1 signaling in favor of an activation of the neutrophil superoxide generating NOX2 complex” (Journal of Leukocyte Biology, 2020) come the findings set out here.

The assay addresses T1, FPR1 (Homo sapiens, UniProt P21462).
T1 sequence (P21462 1-350): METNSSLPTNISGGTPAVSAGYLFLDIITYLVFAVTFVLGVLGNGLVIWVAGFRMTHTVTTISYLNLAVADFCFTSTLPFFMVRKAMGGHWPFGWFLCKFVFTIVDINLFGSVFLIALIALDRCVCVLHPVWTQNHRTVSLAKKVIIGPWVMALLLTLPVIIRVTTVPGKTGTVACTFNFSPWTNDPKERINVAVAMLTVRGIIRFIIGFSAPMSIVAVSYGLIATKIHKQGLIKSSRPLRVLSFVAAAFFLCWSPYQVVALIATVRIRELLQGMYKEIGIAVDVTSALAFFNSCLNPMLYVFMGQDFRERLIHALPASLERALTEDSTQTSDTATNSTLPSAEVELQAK
Briefly: human neutrophil NADPH-oxidase (superoxide) and Ca2+ assays with FPR1/FPR2 antagonists and cross-desensitization; weak β-arrestin recruitment in FPR1 CHO cells. It counts as cell-based. A general note: Arrestin recruitment assays detect the binding of arrestin to an activated receptor.

For orientation: EC50 means the concentration giving half of the maximal effect. Take RE-04-001: the EC50 was around 1 nM.
